Laboratory results from PubChem BioAssay (NCI).
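Dose response: 5 concentrations. Exposure: 48 h. Format: 96-well plates. Endpoint: linear interpolation; highest concentration if not reached. At the GI50, growth is halved. At the TGI there is no net growth.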

Assays:
Test in all cases: DTP human tumour cell line panel, 48 h
786-0 renal = test system: 786-0 renal
A498 renal = test system: A498 renal
A549 NSCLC = test system: A549 NSCLC
ACHN renal = test system: ACHN renal
BT-549 breast = test system: BT-549 breast
CAKI-1 renal = test system: CAKI-1 renal
CCRF-CEM leukemia = test system: CCRF-CEM leukemia
COLO 205 colon = test system: COLO 205 colon
DU-145 prostate = test system: DU-145 prostate
EKVX NSCLC = test system: EKVX NSCLC
HCC-2998 colon = test system: HCC-2998 colon
HCT-116 colon = test system: HCT-116 colon
HCT-15 colon = test system: HCT-15 colon
HL-60(TB) leukemia = test system: HL-60(TB) leukemia
HOP-62 NSCLC = test system: HOP-62 NSCLC
HOP-92 NSCLC = test system: HOP-92 NSCLC
HS 578T breast = test system: HS 578T breast
HT29 colon = test system: HT29 colon
IGROV1 ovarian = test system: IGROV1 ovarian
K-562 leukemia = test system: K-562 leukemia
KM12 colon = test system: KM12 colon
LOX IMVI melanoma = test system: LOX IMVI melanoma
M14 melanoma = test system: M14 melanoma
MALME-3M melanoma = test system: MALME-3M melanoma
MCF7 breast = test system: MCF7 breast
MDA-MB-231 breast = test system: MDA-MB-231 breast
MDA-MB-435 = test system: MDA-MB-435
MOLT-4 leukemia = test system: MOLT-4 leukemia
NCI-H226 lung = test system: NCI-H226 lung
NCI-H23 lung = test system: NCI-H23 lung
NCI-H460 lung = test system: NCI-H460 lung
NCI-H522 lung = test system: NCI-H522 lung
NCI/ADR-RES ovarian = test system: NCI/ADR-RES ovarian
OVCAR-3 ovarian = test system: OVCAR-3 ovarian
OVCAR-4 ovarian = test system: OVCAR-4 ovarian
OVCAR-5 ovarian = test system: OVCAR-5 ovarian
OVCAR-8 ovarian = test system: OVCAR-8 ovarian
PC-3 prostate = test system: PC-3 prostate
RPMI-8226 leukemia = test system: RPMI-8226 leukemia
RXF 393 renal = test system: RXF 393 renal
SF-268 CNS = test system: SF-268 CNS
SF-295 CNS = test system: SF-295 CNS
SF-539 CNS = test system: SF-539 CNS
SK-MEL-2 melanoma = test system: SK-MEL-2 melanoma
SK-MEL-28 melanoma = test system: SK-MEL-28 melanoma
SK-MEL-5 melanoma = test system: SK-MEL-5 melanoma
SK-OV-3 ovarian = test system: SK-OV-3 ovarian
SN12C renal = test system: SN12C renal
SNB-19 CNS = test system: SNB-19 CNS
SNB-75 CNS = test system: SNB-75 CNS
SR leukemia = test system: SR leukemia
SW-620 colon = test system: SW-620 colon
T-47D breast = test system: T-47D breast
TK-10 renal = test system: TK-10 renal
U251 CNS = test system: U251 CNS
UACC-257 melanoma = test system: UACC-257 melanoma
UACC-62 melanoma = test system: UACC-62 melanoma
UO-31 renal = test system: UO-31 renal

For `O=C(N/N=C/c1cc([N+](=O)[O-])ccc1O)c1cccc2ccccc12`, the GI50 (786-0 renal) was 3.29 µM, the TGI (786-0 renal) was 27.7 µM and the GI50 (A498 renal) was 2.71 µM. The TGI (A498 renal) was 29.3 µM, the GI50 (A549 NSCLC) was 4.56 µM and the TGI (A549 NSCLC) was over 100 µM. The GI50 (ACHN renal) was 3.08 µM, the TGI (ACHN renal) was 44.7 µM and the GI50 (BT-549 breast) was 1.63 µM. The TGI (BT-549 breast) was 23.7 µM, the GI50 (CAKI-1 renal) was 1.31 µM and the TGI (CAKI-1 renal) was 4.67 µM. For the same molecule, the GI50 (CCRF-CEM leukemia) was 0.905 µM, the TGI (CCRF-CEM leukemia) was 38.6 µM and the GI50 (COLO 205 colon) was 3.41 µM. It also gave a TGI (COLO 205 colon) of 16.3 µM, a GI50 (DU-145 prostate) of 6.2 µM and a TGI (DU-145 prostate) of over 100 µM. The GI50 (EKVX NSCLC) was 3.8 µM, the TGI (EKVX NSCLC) was 29.7 µM and the GI50 (HCC-2998 colon) was 5.3 µM. It also gave a TGI (HCC-2998 colon) of over 100 µM, a GI50 (HCT-116 colon) of 2.56 µM and a TGI (HCT-116 colon) of over 100 µM. For the same molecule, the GI50 (HCT-15 colon) was 2.55 µM, the TGI (HCT-15 colon) was over 100 µM and the GI50 (HL-60(TB) leukemia) was 2.27 µM. It also gave a TGI (HL-60(TB) leukemia) of 6.02 µM, a GI50 (HOP-62 NSCLC) of 3.73 µM and a TGI (HOP-62 NSCLC) of 35.2 µM. It also gave a GI50 (HOP-92 NSCLC) of 1.26 µM, a TGI (HOP-92 NSCLC) of 13 µM and a GI50 (HS 578T breast) of 12.8 µM. The TGI (HS 578T breast) was over 100 µM, the GI50 (HT29 colon) was 5.74 µM and the TGI (HT29 colon) was over 100 µM. The GI50 (IGROV1 ovarian) was 2.36 µM, the TGI (IGROV1 ovarian) was 8.47 µM and the GI50 (K-562 leukemia) was 3.26 µM. The TGI (K-562 leukemia) was over 100 µM, the GI50 (KM12 colon) was 4.66 µM and the TGI (KM12 colon) was over 100 µM. It also gave a GI50 (LOX IMVI melanoma) of 2.02 µM, a TGI (LOX IMVI melanoma) of 53.4 µM and a GI50 (M14 melanoma) of 2.87 µM. The TGI (M14 melanoma) was 68.4 µM, the GI50 (MALME-3M melanoma) was 3.12 µM and the TGI (MALME-3M melanoma) was 21.7 µM. The GI50 (MCF7 breast) was 2.49 µM, the TGI (MCF7 breast) was 13.4 µM and the GI50 (MDA-MB-231 breast) was 7.6 µM. The TGI (MDA-MB-231 breast) was over 100 µM, the GI50 (MDA-MB-435) was 7.18 µM and the TGI (MDA-MB-435) was over 100 µM. It also gave a GI50 (MOLT-4 leukemia) of 2.41 µM, a TGI (MOLT-4 leukemia) of 21.7 µM and a GI50 (NCI-H226 lung) of 2.45 µM. The TGI (NCI-H226 lung) was 11.5 µM, the GI50 (NCI-H23 lung) was 4.68 µM and the TGI (NCI-H23 lung) was over 100 µM. The GI50 (NCI-H460 lung) was 2.75 µM, the TGI (NCI-H460 lung) was over 100 µM and the GI50 (NCI-H522 lung) was 3.47 µM. The TGI (NCI-H522 lung) was 22 µM, the GI50 (NCI/ADR-RES ovarian) was 2.32 µM and the TGI (NCI/ADR-RES ovarian) was 51.6 µM. For the same molecule, the GI50 (OVCAR-3 ovarian) was 3.67 µM, the TGI (OVCAR-3 ovarian) was over 100 µM and the GI50 (OVCAR-4 ovarian) was 1.2 µM. It also gave a TGI (OVCAR-4 ovarian) of 26.2 µM, a GI50 (OVCAR-5 ovarian) of 6.2 µM and a TGI (OVCAR-5 ovarian) of over 100 µM. It also gave a GI50 (OVCAR-8 ovarian) of 2.88 µM, a TGI (OVCAR-8 ovarian) of over 100 µM and a GI50 (PC-3 prostate) of 6.85 µM. It also gave a TGI (PC-3 prostate) of 64.9 µM, a GI50 (RPMI-8226 leukemia) of 3.35 µM and a TGI (RPMI-8226 leukemia) of 62.2 µM. The GI50 (RXF 393 renal) was 4.14 µM, the TGI (RXF 393 renal) was 35.1 µM and the GI50 (SF-268 CNS) was 4.12 µM. The TGI (SF-268 CNS) was over 100 µM, the GI50 (SF-295 CNS) was 2.77 µM and the TGI (SF-295 CNS) was 20.9 µM. The GI50 (SF-539 CNS) was 3.8 µM, the TGI (SF-539 CNS) was 24.2 µM and the GI50 (SK-MEL-2 melanoma) was 6.69 µM. For the same molecule, the TGI (SK-MEL-2 melanoma) was over 100 µM, the GI50 (SK-MEL-28 melanoma) was 3.11 µM and the TGI (SK-MEL-28 melanoma) was 80.8 µM. For the same molecule, the GI50 (SK-MEL-5 melanoma) was 3.15 µM, the TGI (SK-MEL-5 melanoma) was 14.3 µM and the GI50 (SK-OV-3 ovarian) was 4 µM. It also gave a TGI (SK-OV-3 ovarian) of 33.3 µM, a GI50 (SN12C renal) of 6.62 µM and a TGI (SN12C renal) of over 100 µM. The GI50 (SNB-19 CNS) was 7.65 µM, the TGI (SNB-19 CNS) was over 100 µM and the GI50 (SNB-75 CNS) was 6.2 µM. For the same molecule, the TGI (SNB-75 CNS) was 44.7 µM, the GI50 (SR leukemia) was 1.81 µM and the TGI (SR leukemia) was 16.1 µM. For the same molecule, the GI50 (SW-620 colon) was 3.7 µM, the TGI (SW-620 colon) was over 100 µM and the GI50 (T-47D breast) was 3.28 µM. For the same molecule, the TGI (T-47D breast) was 23.3 µM, the GI50 (TK-10 renal) was 4.4 µM and the TGI (TK-10 renal) was 72.9 µM. It also gave a GI50 (U251 CNS) of 2.46 µM, a TGI (U251 CNS) of 64.1 µM and a GI50 (UACC-257 melanoma) of 2.7 µM. It also gave a TGI (UACC-257 melanoma) of 26.9 µM, a GI50 (UACC-62 melanoma) of 2.98 µM and a TGI (UACC-62 melanoma) of 26.4 µM. It also gave a GI50 (UO-31 renal) of 1.8 µM and a TGI (UO-31 renal) of 19.5 µM.
